Data set [1] in a line: Lipid solubility: octanol / pH 7.4 phosphate buffer partition coefficient. Type of data set: physicochemical. The conditions noted are these: n-octanol / pH 7.4 isotonic phosphate buffer, read-out: log D (pH 7.4). On the procedure:
An equi-volume mixture of n-octanol (hereinafter referred to as octanol) and pH 7.4 isotonic phosphate buffer (hereinafter referred to as aqueous phase) was shaken in a suitable vessel, then statically left for 24 hours or more, and the upper layer (water-saturated octanol) and the lower layer (octanol-saturated water) were separately collected.
1 mg of a test compound was put into a test tube, and 5 ml of the water-saturated octanol was added thereto, ultrasonicated for 10 minutes and then stirred for about 30 seconds. In case where an insoluble substance was seen, then the liquid was filtered through a 0.45-μm membrane filter. 2 mL of the water-saturated octanol solution of the test compound was taken into a test tube, 2 mL of the octanol-saturated water was added thereto and shaken for 30 minutes. Then, this was centrifuged to separate into an upper layer (octanol phase) and a lower layer (aqueous phase), which were then separately collected.
The octanol phase and the aqueous phase were suitably diluted with DMSO, and the concentration of the test compound therein was determined through UV-detection HPLC or MS-detection HPLC.
From the concentration measured in each phase and the dilution ratio of each phase, the partition coefficient was derived through computation.
In case where the solubility in water of the test compound is estimated to be high, then the test compound is dissolved in the octanol-saturated water and then the water-saturated octanol is added thereto, shaken and centrifuged, and the upper layer (octanol phase) and the lower layer (aqueous phase) are separately collected to determine the concentration of the test compound.
The details of the HPLC apparatus and its operation condition are as follows: […]

Data set [2] in a line: Determination of solubility in JP-fluid 1 / JP-fluid 2 (HPLC). Type of data set: physicochemical. The conditions noted are these: thermodynamic from solid, 12 hours or more. On the procedure:
Determination of Solubility
One mg of a test compound was put into a test tube, and 1 ml of the first fluid for Japanese Pharmacopoeia Disintegration Test Method (synthetic gastric juice, pH 1.2: hereinafter referred to as JP-fluid 1) or the second fluid for Japanese Pharmacopoeia Disintegration Test Method (synthetic intestinal juice, pH 6.8: hereinafter referred to as JP-fluid 2) was added thereto and shaken, and then statically left at room temperature for 12 hours or more. After thus left, the sample was filtered through a 0.45-μm membrane filter, and the filtrate was suitably diluted with a mixture of DMSO-purified water (1/1) to prepare solutions for solubility determination.
Apart from the above, 1 mg of the test compound was put into a 20-mL messflask, and dissolved in a mixture of DMSO-purified water (1/1) to prepare a standard solution of 50 μg/mL. The standard solution was stepwise diluted to give serial dilutions, and using the dilutions, a calibration curve was formed.
The above-mentioned solutions for solubility determination with the JP-fluid 1 or the JP-fluid 2 were analyzed through HPLC, and based on the calibration curve formed in the above, the solubility of the test compound was computed.
The HPLC condition is as follows:
HPLC System for Alliance Assay (by Waters, USA),
Feed Pump: 2795 separation module,
UV Detector: 2996 photodiode array detector,
Column: ODS-type C18 column (3.5 μm, 3.0 mm ID×30 mm),
Column Temperature: 60° C.,
Mobile Phase A: pH 4.5, 10 mM acetate buffer,
Mobile Phase B: 50% acetic acid-acetonitrile mixture (1/999),
Gradient Condition: mobile phase A/B ratio, 95/5 to 10/90,
Sample Temperature: 25° C.,
Detection Wavelength: maximum absorption wavelength within a range of 220 to 420 nm.

The target of a further data set is T1, hPPARα (Homo sapiens, UniProt Q07869).
T1 construct: expressed in transfected cells; host or cells: HEK293T
T1 sequence (Q07869 239-466 limits assumed): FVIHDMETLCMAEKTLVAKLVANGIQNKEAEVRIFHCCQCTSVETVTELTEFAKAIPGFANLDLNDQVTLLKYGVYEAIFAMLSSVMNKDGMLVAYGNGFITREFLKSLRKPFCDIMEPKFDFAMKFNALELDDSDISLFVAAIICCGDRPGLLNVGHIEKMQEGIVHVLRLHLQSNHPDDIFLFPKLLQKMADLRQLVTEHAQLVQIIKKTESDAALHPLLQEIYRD
In words: GAL4-hPPAR transactivation assay (PPARα). The conditions noted are these: HEK293T cells, pFA-hPPARα/GAL4 + pFR-SEAP reporter, about 48 hours. Type of data set: cell-based. The text has this:
(§1) GAL4-hPPAR Transactivation Assay
(§2) Plasmids for the expression of fusion protein for GAL4 DNA binding region-PPAR ligand binding region, pFA-hPPARα/GAL4 and pFA-hPPARγ/GAL4, were constructed by inserting the LBD cDNA of hPPARα and hPPARγ, respectively, into a commercially-available expression vector (pFA trans-activator plasmid, by STRATAGENE) having a GAL4 DNA binding region (GAL4 DBD) of yeast, under CMV promoter. For the expression of a reporter protein, used were a commercially-available plasmid (pFR-SEAP, by STRATAGENE) having a GAL4 responsive region (GAL4 UAS) in the upstream of cDNA of a secreted alkaline phosphatase (SEAP).
(§3) (b) Cell Culture and Transactivation Assay:
(§4) HEK293T cells were suspended in a high-glucose Dulbecco's modified Eagle's medium (DMEM) containing 10% fetal calf serum (by Hyclone), 100 U/mL penicillin G and […], and seeded in a 24-well cell culture plate in a density of 8×10^4 cells/well. The cells were cultured in a humidified atmosphere of 5% CO2 at 37° C. for 24 hours, and then subjected to transfection using Lipofectamine (by Invitrogen) and Plus reagent (by Invirogen) according to the manufacture's instruction in the absence of serum. Concretely, the cells were incubated in 225 μL of a transfection medium (OPTI-MEM, by Invitrogen) containing 0.48 μL of Lipofectamine, 0.030 μg of pFA-PPAR/GAL4 expression plasmid and 0.13 μg of pFR-SEAP, in a 5% CO2 atmosphere at 37° C. for 5 hours. Next, the same volume of a fresh high-glucose DMEM containing 10% fetal calf serum, 100 U/mL penicillin G, […] streptomycin sulfate and a test compound of two times the designated concentration was added to it, and the cells were incubated for about 48 hours. After the compound was solubilized in DMSO, control cells were incubated along with an equivalent concentration of DMSO. […] After the incubation, the culture supernatant was collected, and using a kit (reporter assay kit—SEAP, by TOYOBO), the SEAP activity was determined according to the manufacturer's instruction. Concretely, the same amount of an intrinsic alkaline phosphatase inhibitor was added to 5 μL of the culture supernatant and incubated at 37° C. for 30 minutes, and then 100 μL of a chemoluminescent substrate (Lumiphos PLUS, by Lumigen) was added thereto and incubated at 37° C. for 15 minutes, and thereafter the luminescence level was determined using a multi-label counter (ARVOsx, by Perkin Elmer). The values obtained as a result of the above operation and the concentrations of the test compound were plotted to obtain the EC50 value.

A further data set concerns the target T2, hPPARγ (Homo sapiens, UniProt P37231).
T2 construct: expressed in transfected cells; host or cells: HEK293T
T2 sequence (P37231 238-503 limits assumed): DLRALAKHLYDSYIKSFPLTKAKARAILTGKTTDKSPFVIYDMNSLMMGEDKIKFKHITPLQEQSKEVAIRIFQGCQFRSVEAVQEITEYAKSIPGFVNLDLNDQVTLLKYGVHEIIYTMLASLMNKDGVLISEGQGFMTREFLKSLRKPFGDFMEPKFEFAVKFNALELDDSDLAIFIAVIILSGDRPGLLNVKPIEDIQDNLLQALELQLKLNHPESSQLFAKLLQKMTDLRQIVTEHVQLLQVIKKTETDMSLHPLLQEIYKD
In words: GAL4-hPPAR transactivation assay (PPARγ). Type of data set: cell-based. As to conditions: HEK293T cells, pFA-hPPARγ/GAL4 + pFR-SEAP reporter, about 48 hours.
Text: as §1, §2, §3, §4

The conditions of data set [3]: db/db mice, as compared with pioglitazone; cited from earlier work.
The conditions of data set [4]: in vivo; cited from earlier work.
For data set [5] the following is noted: patients associated with type II diabetes; cited from earlier work.
[6] abbreviates: fassgf or other biorelevant, synthetic intestinal juice, pH 6.8, room temperature, read-out: Solubility JP-fluid 2.
Setting [7] is: simulated gastric fluid, synthetic gastric juice, pH 1.2, room temperature, read-out: Solubility JP-fluid 1.

pEC50: −log10 of the molar value. In brackets after ≈: the same amount, converted by molar mass. Where a name gives a salt, the structure may show the parent alone. Read-outs that look alike come from different tables or passages of the source.

With `Cc1oc(-c2cccc(Br)c2)nc1CN(Cc1ccc(OC(C)(C)C(=O)O)cc1)Cc1nccs1` [Example 1-(2), 2-[4-[[[2-(3-Bromophenyl)-5-methyloxazol-4-ylmethyl]thiazol-2-ylmethylamino]methyl]phenoxy-2-methylpropionic acid hydrochloride], the logD in data set [1] came to 2.7. The solubility in data set [2] (setting [6]) was greater than 1000 µg/mL; in data set [2] (setting [7]) it was 490 µg/mL. Further, the values for the pEC50 at hPPARα and on hPPARγ were 7.89 and 6.23, respectively.

Regarding `Cc1oc(-c2cccc(Br)c2)nc1CN(Cc1ccncc1)Cc1ccc(OC(C)(C)C(=O)O)cc1` [Example 4-(2), 2-[4-[[[2-(3-Bromophenyl)-5-methyloxazol-4-ylmethyl]pyridin-4-ylmethylamino]methyl]phenoxy]-2-methylpropionic acid], the logD in data set [1] was 2.5. The figures for the solubility in data set [2] (setting [6]) and in data set [2] (setting [7]) were less than 3 µg/mL and 930 µg/mL (≈ 1690 µM), respectively. Besides, the results for the pEC50 at hPPARα and at hPPARγ were 8.32 and 6.74, respectively.

For `Cc1oc(-c2cccc(Br)c2)nc1CN(Cc1ccc(OC(C)(C)C(=O)O)cc1)Cc1cscn1` [Example 5-(2), 2-[4-[[[2-(3-Bromophenyl)-5-methyloxazol-4-ylmethyl]thiazol-4-ylmethylamino]methyl]phenoxy]-2-methylpropionic acid hydrochloride], the logD in data set [1] is 2.3. Moreover, the solubility is 680 µg/mL in data set [2] (setting [6]) and 520 µg/mL in data set [2] (setting [7]). Moreover, the figures for the pEC50 on hPPARα and on hPPARγ were 8.59 and 6.66, respectively.

`Cc1cc(CN(Cc2ncco2)Cc2nc(-c3ccccc3)oc2C)cc(C)c1OC(C)(C)C(=O)O` [Example 13-(2), 2-[2,6-Dimethyl-4-[[(5-methyl-2-phenyloxazol-4-ylmethyl)oxazol-2-ylmethylamino]methyl]phenoxy]-2-methylpropanoic acid]: the logD in data set [1] was 1.8. In addition, the solubility in data set [2] (setting [6]) and in data set [2] (setting [7]) was greater than 870 µg/mL each time. The figures for the pEC50 at hPPARα and on hPPARγ were 8.43 and 8.26, respectively.

For `Cc1cc(CN(Cc2nccs2)Cc2nc(-c3ccccc3)oc2C)cc(C)c1OC(C)(C)C(=O)O` [Example 16-(2), 2-[2,6-Dimethyl-4-[[(5-methyl-2-phenyloxazol-4-ylmethyl)thiazol-2-ylmethylamino]methyl]phenoxy]-2-methylpropanoic acid], in data set [1], the logD is 2.6. Also, the solubility in data set [2] (setting [6]) was 480 µg/mL (≈ 949 µM); in data set [2] (setting [7]) it was greater than 490 µg/mL. For the same compound, the pEC50 was 8.62 at hPPARα and 8.06 at hPPARγ.

On to `Cc1nnc(CN(Cc2cc(C)c(OC(C)(C)C(=O)O)c(C)c2)Cc2nc(-c3ccccc3)oc2C)o1` [Example 18-(2), 2-[2,6-Dimethyl-4-[[(5-methyl-[1,3,4]oxadiazol-2-ylmethyl)-(5-methyl-2-phenyloxazol-4-ylmethyl)amino]methyl]phenoxy]-2-methylpropanoic acid], for which the logD in data set [1] was determined as 1.1. Moreover, the solubility in data set [2] (setting [6]) and in data set [2] (setting [7]) was greater than 710 µg/mL in each case. For the same compound, the pEC50 at hPPARα is 8.54; on hPPARγ, 7.48.

With `Cc1noc(CN(Cc2cc(C)c(OC(C)(C)C(=O)O)c(C)c2)Cc2nc(-c3ccccc3)oc2C)n1` [Example 19-(3), 2-[2,6-Dimethyl-4-[[(3-methyl-[1,2,4]oxadiazol-5-ylmethyl)-(5-methyl-2-phenyloxazol-4-ylmethyl)amino]methyl]-phenoxy]-2-methylpropanoic acid], the logD in data set [1] stood at 1.8. Further, the solubility in data set [2] (setting [6]) is greater than 710 µg/mL; in data set [2] (setting [7]) it was 650 µg/mL (≈ 1290 µM). The pEC50 on hPPARα is 8.57; on hPPARγ it was 8.16.

For `COc1ccc(CC2SC(=O)NC2=O)cc1C(=O)NCc1ccc(C(F)(F)F)cc1` (centres unmarked) [KRP-297], the body weight increase result in data set [3] is recorded as “significantly inhibits the body weight increase”.

As to `Cc1oc(-c2ccc(-c3ccccc3)cc2)nc1CCOc1ccc(OC(C)(C)C(=O)O)cc1` [LY465608], in data set [4], the “high-density lipoprotein (HDL)” value is reported as “dose-dependently increases” and the plasma triglyceride result was “lowers”.

In the case of `CCc1ccc(CCOc2ccc(CC3SC(=O)NC3=O)cc2)nc1` (centres unmarked) [Pioglitazone, pioglitazone], in data set [5], the “body weight increase or fluid accumulation” value was “observed in some patients”.

As to `Cc1cc(CN(Cc2ccco2)Cc2sc(-c3ccc(C(F)(F)F)cc3)nc2C)ccc1OC(C)(C)C(=O)O` [SKB-compd, reference compound], the logD in data set [1] is 4.4. Besides, the solubility in data set [2] (setting [6]) was 10 µg/mL (≈ 17.9 µM); in data set [2] (setting [7]) it was 240 µg/mL (≈ 430 µM). In addition, the pEC50 was 7.36 on hPPARα and 7.32 at hPPARγ.

The term solubility denotes the dissolved amount per volume that the medium holds. Broadly, the pEC50 is the EC50 on a negative log10 scale, so that one unit is a factor of ten.

The values above are taken from patent publication US20070208021A1, “Phenoxyacetic Acid Derivatives and Drug Comprising The Same” (DAIICHI PHARMACEUTICAL CO., LTD., priority 2004, published 2007).
